Entries after “also recorded” stand apart in the source; their conditions may differ. Positions of bridges follow the written chain, without caps; N, C: chain ends.
Assays:
[1] = tested on: cells of rat pituitary glands; test: in vitro radioimmunoassay of growth hormone release from cultured rat pituitary cells, side-by-side comparison with somatostatin-14; format: cell-based; settings: for biological activity / potency: comparative in vitro testing, compared with aSS-28
Experimental: To determine the effectiveness of the peptides to inhibit the release of […], in vitro radioimmunoassays are carried out using aSS-28, [Lys^23]-aSS-28 and aSS(15-28) in side-by-side comparison with equimolar concentrations of somotostatin-14 having a known effectiveness to inhibit the release of growth hormone induced by the application of isobutyl methyl xanthine to pituitary cells. Cultures are used which include cells of rat pituitary glands removed some four to five days previously in a system that minimizes enzymatic degradation, generally following the procedure set forth in Vale et al., Methods in Enzymology, Hormones and Cyclic Nucleotides (1975) Vol. 37, p. 82. Both cultures of a defined standard medium and cultures which are considered optimal for the secretion of growth hormone, as a result of having additions of either 2% or 10% of serum from a foetal calf, are used for the comparative testing.

[2] = synthetic SS-28; Pradayrol et al., FEBS Letters 109, 1980; cited from earlier work
[3] = tested on: secretion of glucagon and insulin; test: in vivo inhibition of insulin (and glucagon) secretion, potency relative to somatostatin-14; parameters: species or system rats; settings: basal and stimulated insulin secretion in mammals, including humans and dogs; compared with somatostatin-14 and somatostatin-28
Experimental: In vivo experiments are carried out with aSS-28, using the procedure described in Brown et al., Metabolism (1976) Vol. 25, pp. 1501-1503, to determine the potency, relative to somatostatin-14, to inhibit the secretion of glucagon and insulin stimulated by the administration of arginine to groups of rats.

H-Ala-Gly-Cys-Lys-Asn-Phe-Tyr-Trp-Hyl-Gly-Phe-Thr-Ser-Cys-OH [aSS(15-28)]
biological activity / potency [1]: similarly biologically active although having somewhat lower potencies

H-Ser-Ala-Asn-Ser-Asn-Pro-Ala-Met-Ala-Pro-Arg-Glu-Arg-Lys-Ala-Gly-Cys-Lys-Asn-Phe-Phe-Trp-Lys-Thr-Phe-Thr-Ser-Cys-OH [SS-28]
potency when administered in vivo [2]: increased potency

H-Ser-Val-Asp-Ser-Thr-Asn-Asn-Leu-Pro-Pro-Arg-Glu-Arg-Lys-Ala-Gly-Cys-Lys- Asn-Phe-Tyr-Trp-Lys-Gly-Phe-Thr-Ser-Cys-OH (H-SVDSTNNLPPRERKAGCKNFYWKGFTSC-OH; disulfide 17-28 (inferred); ends not checked) [[Lys 23]-aSS-28]
biological activity / potency [1]: similarly biologically active although having somewhat lower potencies

H-Ser-Val-Asp-Ser-Thr-Asn-Asn-Leu-Pro-Pro-Arg-Glu-Arg-Lys-Ala-Gly-Cys-Lys-Asn-Phe-Tyr-Trp-Hyl-Gly-Phe-Thr-Ser-Cys-OH [aSS-28]
insulin-selectivity ([1]; inferred from GH inhibition compared with SS-14): likely insulin-selective; also recorded: extreme insulin-selectivity
inhibition of GH ([1]; release of growth hormone induced by isobutyl methyl xanthine, compared with equimolar SS-14): substantially less than SS-14
potency to inhibit insulin secretion [3]: increased potency; also recorded: more potent than either somatostatin-14 or somatostatin-28

Source: EP0173527A2, “Insulin-selective somatostatin analogs” (THE SALK INSTITUTE FOR BIOLOGICAL STUDIES, priority 1984, dated 1986)
